In this experiment the target is T1, DPP-IV (Homo sapiens, UniProt P27487).
T1 construct: Soluble human DPP-IV lacking the transmembrane anchor (Gly31-Pro766); Pre-Pro-alpha-mating factor leader (secretion signal) (N, cleaved yes); made in house
Nature of the experiment: Inhibition of DPP-IV peptidase activity, continuous fluorimetric assay (cleavage of Gly-Pro-AMC). It counts as biochemical. As for the experimental part: Inhibition of DPP-IV peptidase activity was monitored with a continuous fluorimetric assay. This assay is based on the cleavage of the substrate Gly-Pro-AMC (Bachem) by DPP-IV, releasing free AMC. The assay is carried out in 96-well microtiter plates. In a total volume of 100 μL, compounds are preincubated with […] DPP-IV employing a buffer containing 10 mM Hepes, 150 mM NaCl, 0.005% Tween 20 (pH 7.4). […] The final concentration of DMSO is 1%. The inhibitory potential of the compounds were determined.
Soluble human DPP-IV lacking the transmembrane anchor (Gly31-Pro766) was expressed in a recombinant YEAST-strain as Pre-Pro-alpha-mating fusion. The secreted product (rhuDPP-IV-Gly31-Pro766) was purified from fermentation broth (>90% purity).

Some results are limits rather than exact numbers.

What is called IC50 is the concentration at which inhibition is half-maximal.

T1 sequence (P27487 31-766): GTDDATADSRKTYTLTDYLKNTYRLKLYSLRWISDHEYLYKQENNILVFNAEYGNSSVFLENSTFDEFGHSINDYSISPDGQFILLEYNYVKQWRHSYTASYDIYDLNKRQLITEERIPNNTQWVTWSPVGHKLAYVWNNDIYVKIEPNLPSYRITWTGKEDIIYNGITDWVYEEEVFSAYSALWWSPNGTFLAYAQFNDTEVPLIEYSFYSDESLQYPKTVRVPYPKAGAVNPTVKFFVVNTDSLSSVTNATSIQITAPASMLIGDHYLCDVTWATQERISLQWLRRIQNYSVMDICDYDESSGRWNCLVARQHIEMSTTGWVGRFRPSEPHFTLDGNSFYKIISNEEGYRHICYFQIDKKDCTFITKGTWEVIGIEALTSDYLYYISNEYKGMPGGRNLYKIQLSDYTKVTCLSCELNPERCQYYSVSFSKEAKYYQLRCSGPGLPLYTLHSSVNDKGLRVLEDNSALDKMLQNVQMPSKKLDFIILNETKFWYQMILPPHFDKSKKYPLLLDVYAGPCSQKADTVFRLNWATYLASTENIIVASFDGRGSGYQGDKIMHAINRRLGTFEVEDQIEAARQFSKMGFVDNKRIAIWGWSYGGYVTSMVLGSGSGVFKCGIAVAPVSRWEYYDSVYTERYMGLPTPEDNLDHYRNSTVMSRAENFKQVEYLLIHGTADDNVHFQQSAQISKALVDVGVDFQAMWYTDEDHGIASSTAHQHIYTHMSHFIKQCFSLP

Compound `N[C@@H](Cc1cc(F)ccc1F)C1CCN(C(=O)c2cnccn2)CC1` (single isomer, unassigned) [Example 44] gave an IC50 of 101 to 1000 nM.
Then `N[C@@H](Cc1cc(F)ccc1F)C1CCN(C(=O)c2ccc(C(F)(F)F)nc2)CC1` (single isomer, unassigned) [Example 47], with 1000 to 2000 nM; and `N[C@@H](Cc1cc(F)ccc1F)C1CCN(C(=O)c2ccnc(C(F)(F)F)n2)CC1` (single isomer, unassigned) [Example 50], with 101 to 1000 nM.
Then `N[C@@H](Cc1cc(F)ccc1F)C1CCN(C(=O)c2ccnn2C(F)F)CC1` (single isomer, unassigned) [Example 53], with 1000 to 2000 nM; and `N[C@@H](Cc1cc(F)c(F)cc1F)C1CCN(C(=O)c2ccnc(C(F)(F)F)n2)CC1` (single isomer, unassigned) [Example 65], with 1000 to 2000 nM.
In turn, `N[C@H](Cc1cccc(Cl)c1)C1CCNCC1` (stereo in doubt) [Example 7, 2-(3-Chloro-phenyl)-1-piperidin-4-yl-ethylamine] yielded an IC50 of 101 to 1000 nM.
`CC(C)(C)OC(=O)N1CCC(C(N)Cc2cccc(Cl)c2)CC1` (stereo not shown) [Example 6, 4-[1-Amino-2-(3-chloro-phenyl)-ethyl]-piperidine-1-carboxylic acid tert.-butyl ester] came in with an IC50 of 101 to 1000 nM.
Then `N[C@H](Cc1cccc(Cl)c1)C1CCN(C(=O)c2ncccn2)CC1` [Example 8, {4-[(R)-1-Amino-2-(3-chloro-phenyl)-ethyl]-piperidin-1-yl}-pyrimidin-2-yl-methanone], with < 100 nM.
Take `NC(Cc1cccc(Cl)c1)C1CCN(C(=O)C2CC2)CC1` (stereo not shown) [Example 9]: the IC50 was in the range of 101 to 1000 nM.
For `NC(Cc1cccc(Cl)c1)C1CCN(C(=O)c2ccccc2)CC1` (stereo not shown) [Example 10], the IC50 is < 100 nM.
As for `NC(Cc1cccc(Cl)c1)C1CCN(C(=O)c2cccnc2)CC1` (stereo not shown) [Example 11], the concentration for half-maximal inhibition (IC50) was < 100 nM.
Then `NC(Cc1cccc(Cl)c1)C1CCN(C(=O)CC2CC2)CC1` (stereo not shown) [Example 12], with 101 to 1000 nM.
Compound `NC(Cc1cccc(Cl)c1)C1CCN(C(=O)C2CCOC2)CC1` (stereo not shown) [Example 13] had an IC50 of 101 to 1000 nM.
As to `NC(Cc1cccc(Cl)c1)C1CCN(C(=O)Cc2ccccc2)CC1` (stereo not shown) [Example 14], the IC50 was 101 to 1000 nM.
`NC(Cc1cccc(Cl)c1)C1CCN(C(=O)c2cnccn2)CC1` (stereo not shown) [Example 15]: the IC50 was < 100 nM.
As to `NC(Cc1cccc(Cl)c1)C1CCN(C(=O)C2(C(F)(F)F)CC2)CC1` (stereo not shown) [Example 16], the IC50 was 101 to 1000 nM.
For `NC(Cc1cccc(Cl)c1)C1CCN(C(=O)c2ccc(C(F)(F)F)nc2)CC1` (stereo not shown) [Example 17], the IC50 is < 100 nM.
In turn, `NC(Cc1cccc(Cl)c1)C1CCN(C(=O)c2cn[nH]c2)CC1` (stereo not shown) [Example 18] displayed an IC50 of 101 to 1000 nM.
For `Cn1cc(C(=O)N2CCC(C(N)Cc3cccc(Cl)c3)CC2)c(C(F)(F)F)n1` (stereo not shown) [Example 19], the IC50 is < 100 nM.
On to `NC(Cc1cccc(Cl)c1)C1CCN(C(=O)c2ncccn2)CC1` (stereo not shown) [Example 20], for which the IC50 is < 100 nM.
Regarding `N[C@@H](Cc1cccc(Cl)c1)C1CCN(C(=O)c2ncccn2)CC1` [Example 21], the IC50 is 1000 to 2000 nM.
As to `NC(Cc1cccc(Cl)c1)C1CCN(C(=O)c2ccnnc2)CC1` (stereo not shown) [Example 22], the IC50 was < 100 nM.
For the compound `NC(Cc1cccc(Cl)c1)C1CCN(C(=O)c2cncnc2)CC1` (stereo not shown) [Example 23], the IC50 was < 100 nM.
On to `Cc1cc(C(=O)N2CCC(C(N)Cc3cccc(Cl)c3)CC2)no1` (stereo not shown) [Example 24], for which the IC50 was < 100 nM.
Then `NC(Cc1cccc(Cl)c1)C1CCN(C(=O)c2ccnn2C(F)F)CC1` (stereo not shown) [Example 25], with < 100 nM.
Then `NC(Cc1cccc(Cl)c1)C1CCN(C(=O)c2ccn(C(F)F)n2)CC1` (stereo not shown) [Example 26], with < 100 nM.
As to `Cn1cncc1C(=O)N1CCC(C(N)Cc2cccc(Cl)c2)CC1` (stereo not shown) [Example 27], the IC50 was < 100 nM.
As to `Cn1ncc(C(=O)N2CCC(C(N)Cc3cccc(Cl)c3)CC2)c1C(F)(F)F` (stereo not shown) [Example 28], the IC50 was < 100 nM.
Regarding `Cn1cnc(C(=O)N2CCC(C(N)Cc3cccc(Cl)c3)CC2)c1` (stereo not shown) [Example 29], the IC50 lay in the range of 101 to 1000 nM.
For `Cn1nc(C(=O)N2CCC(C(N)Cc3cccc(Cl)c3)CC2)cc1C(F)(F)F` (stereo not shown) [Example 30], the IC50 is < 100 nM.
Turning to `Cn1nc(C(F)(F)F)cc1C(=O)N1CCC(C(N)Cc2cccc(Cl)c2)CC1` (stereo not shown) [Example 31], the IC50 is 101 to 1000 nM.
Take `NC(Cc1cccc(Cl)c1)C1CCN(C(=O)c2cnccc2C(F)(F)F)CC1` (stereo not shown) [Example 32]: the IC50 was < 100 nM.
Consider `NC(Cc1cccc(Cl)c1)C1CCN(C(=O)c2cc(C(F)(F)F)n[nH]2)CC1` (stereo not shown) [Example 33], for which the IC50 fell in the range of 101 to 1000 nM.
Turning to `NC(Cc1cccc(Cl)c1)C1CCN(S(=O)(=O)C2CC2)CC1` (stereo not shown) [Example 34, 2-(3-Chloro-phenyl)-1-(1-cyclopropanesulphonyl-piperidin-4-yl)-ethylamine], the IC50 was < 100 nM.
For the compound `NC(Cc1cccc(Cl)c1)C1CCN(S(=O)(=O)c2ccccc2)CC1` (stereo not shown) [Example 35], the IC50 is < 100 nM.
Regarding `NC(Cc1cccc(Cl)c1)C1CCN(S(=O)(=O)Cc2ccccc2)CC1` (stereo not shown) [Example 36], the IC50 is < 100 nM.
As for `NC(Cc1cc(F)ccc1F)C1CCN(S(=O)(=O)C2CC2)CC1` (stereo not shown) [Example 37], the concentration for half-maximal inhibition (IC50) is < 100 nM.
In the case of `N[C@H](Cc1cc(F)ccc1F)C1CCN(S(=O)(=O)C2CC2)CC1` [Example 38], the IC50 was < 100 nM.
Then `N[C@@H](Cc1cc(F)ccc1F)C1CCN(S(=O)(=O)C2CC2)CC1` [Example 39], with 101 to 1000 nM.
For `CC(C)(C)OC(=O)N1CCC(C(N)Cc2cc(F)ccc2F)CC1` (stereo not shown) [Example 40, 4-[1-Amino-2-(2,5-difluoro-phenyl)-ethyl]-piperidine-1-carboxylic acid tert-butyl ester], the IC50 is < 100 nM.
Then `N[C@H](Cc1cc(F)ccc1F)C1CCN(C(=O)c2ncccn2)CC1` [Example 41], with < 100 nM.
The compound `N[C@@H](Cc1cc(F)ccc1F)C1CCN(C(=O)c2ncccn2)CC1` [Example 42] gave an IC50 of 1000 to 2000 nM.
Turning to `N[C@H](Cc1cc(F)ccc1F)C1CCN(C(=O)c2cnccn2)CC1` [Example 43], the IC50 was < 100 nM.
As for `NC(Cc1cc(F)ccc1F)C1CCN(C(=O)c2cnccn2)CC1` (stereo not shown) [Example 45], the IC50 was < 100 nM.
The value for `N[C@H](Cc1cc(F)ccc1F)C1CCN(C(=O)c2ccc(C(F)(F)F)nc2)CC1` [Example 46] was < 100 nM; that for `NC(Cc1cc(F)ccc1F)C1CCN(C(=O)c2ccc(C(F)(F)F)nc2)CC1` (stereo not shown) [Example 48] was < 100 nM; that for `N[C@H](Cc1cc(F)ccc1F)C1CCN(C(=O)c2ccnc(C(F)(F)F)n2)CC1` [Example 49] was < 100 nM.
In the case of `NC(Cc1cc(F)ccc1F)C1CCN(C(=O)c2ccnc(C(F)(F)F)n2)CC1` (stereo not shown) [Example 51], the IC50 is < 100 nM.
Take `N[C@H](Cc1cc(F)ccc1F)C1CCN(C(=O)c2ccnn2C(F)F)CC1` [Example 52]: the concentration for half-maximal inhibition (IC50) was < 100 nM.
As for `NC(Cc1cc(F)ccc1F)C1CCN(C(=O)c2cnc(C(F)(F)F)nc2)CC1` (stereo not shown) [Example 54], the concentration for half-maximal inhibition (IC50) is < 100 nM.
Consider `NC(Cc1cc(F)ccc1F)C1CCN(C(=O)c2ncc(F)cc2F)CC1` (stereo not shown) [Example 55], for which the IC50 is < 100 nM.
Then `NC(Cc1cc(F)ccc1F)C1CCN(C(=O)c2ccn(C(F)F)n2)CC1` (stereo not shown) [Example 56], with < 100 nM.

Values taken from US20070265261A1, “Dpp-IV Inhibitors” (priority 2004, published 2007).
